Assay results: paper PMC11747885, “Potent inhibitors of the human RNA ligase Rlig1 highlights its role in RNA integrity maintenance under oxidative cellular stress” (Chemical Science, 2025)
“And” between values parts separate entries of the source, which are not always exact repeats. Equal entries are not always repeated. “Also recorded” adds a separate entry of the source. Where two headings read alike, the source gives them in different places. Blank lines part the entries; values can stand above or below the compound they belong to. Non-standard residues stand in square brackets, D forms with d. Residues, ends and D or L forms follow the SMILES beside them. *: point of attachment. Sta = CC(C)C[C@H](N)[C@@H](O)CC(=O)O; Isovaleryl = CC(C)CC(=O)*

Experiments:
[1] = test system: kinesin-like protein KIFC1 (HSET/KIFC1); design: method as in MedChemExpress; settings: ref MedChemExpress; cited from earlier work
[2] = target: T1, Rlig1-AMP (Homo sapiens, UniProt Q8N999); test: FRET-based high-throughput screening of inhibitors for Rlig1-AMP; format: biochemical; settings: for Raw data [w Enyzm]: with enzyme; for Raw data [w/o Enzym]: without enzyme
T1 construct: made in house; host or cells: E. coli BL21 (DE3), pET15b-Rlig1
T1 sequence (Q8N999 whole entry): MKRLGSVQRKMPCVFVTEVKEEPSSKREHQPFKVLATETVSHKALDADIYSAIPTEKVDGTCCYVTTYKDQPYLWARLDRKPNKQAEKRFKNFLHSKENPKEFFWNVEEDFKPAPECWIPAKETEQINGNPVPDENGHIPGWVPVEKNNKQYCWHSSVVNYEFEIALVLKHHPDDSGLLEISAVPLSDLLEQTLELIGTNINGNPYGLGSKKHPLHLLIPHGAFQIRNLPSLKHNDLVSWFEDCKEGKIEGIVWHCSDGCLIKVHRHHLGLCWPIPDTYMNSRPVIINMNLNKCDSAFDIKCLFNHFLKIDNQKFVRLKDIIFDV

[3] = DMSO; ref MedChemExpress; cited from earlier work
[4] = test system: SHSY5Y neuroblastoma cells; design: method as in MedChemExpress; settings: ref MedChemExpress, cited from earlier work
[5] = in vitro; settings: human
[6] = Cell viability assay of HEK293 cells treated with inhibitors and menadione; format: cell-based, human; settings: human, HEK293 cells, 30 μM compound, 24 h, no menadione; read-out: cell viability without oxidative stress
[7] = test system: HEK293 cells; test: as above; format: cell-based, human; settings: inhibitor 24 h, then 40 μM menadione 5 h
[8] = test system: HEK293 cells; test: RNA integrity analysis of HEK293 cells treated with inhibitors and menadione (TapeStation 28S/18S rRNA); format: cell-based, human; settings: 30 μM compound 24 h; Menadione 0 μM
[9] = target: T1, Rlig1-AMP; test: Radioactive RNA ligation assay (hit validation, 10 µM test and IC50 determination); format: biochemical; settings: for IC50: n = 3; for percentage inhibition (dose response curve for IC50): replicates I-III
[10] = test system: DNA methyltransferases (DNMTs); settings: cited from earlier work
[11] = test system: HEK293 cells; test: Light-microscopy of inhibitor- and menadione-treated HEK293 cells; format: cell-based, human; settings: 30 µM compound 24 h, then menadione 5 h
[12] = test system: HEK293 cells; test: Cell viability assay of HEK293 cells treated with inhibitors (CellTiter-Glo)
[13] = target: T2, human DNA ligase 1 (hLig1) (Homo sapiens, UniProt P18858); test: DNA ligation assay with various hLig1 concentration at constant inhibitor concentration; format: biochemical; settings: 10 µM compound, 30 min 37 °C, three replicates
T2 construct: made in house; host or cells: E. coli Rosetta BL21 (DE3), pET28a-hLig1
T2 sequence (P18858 whole entry): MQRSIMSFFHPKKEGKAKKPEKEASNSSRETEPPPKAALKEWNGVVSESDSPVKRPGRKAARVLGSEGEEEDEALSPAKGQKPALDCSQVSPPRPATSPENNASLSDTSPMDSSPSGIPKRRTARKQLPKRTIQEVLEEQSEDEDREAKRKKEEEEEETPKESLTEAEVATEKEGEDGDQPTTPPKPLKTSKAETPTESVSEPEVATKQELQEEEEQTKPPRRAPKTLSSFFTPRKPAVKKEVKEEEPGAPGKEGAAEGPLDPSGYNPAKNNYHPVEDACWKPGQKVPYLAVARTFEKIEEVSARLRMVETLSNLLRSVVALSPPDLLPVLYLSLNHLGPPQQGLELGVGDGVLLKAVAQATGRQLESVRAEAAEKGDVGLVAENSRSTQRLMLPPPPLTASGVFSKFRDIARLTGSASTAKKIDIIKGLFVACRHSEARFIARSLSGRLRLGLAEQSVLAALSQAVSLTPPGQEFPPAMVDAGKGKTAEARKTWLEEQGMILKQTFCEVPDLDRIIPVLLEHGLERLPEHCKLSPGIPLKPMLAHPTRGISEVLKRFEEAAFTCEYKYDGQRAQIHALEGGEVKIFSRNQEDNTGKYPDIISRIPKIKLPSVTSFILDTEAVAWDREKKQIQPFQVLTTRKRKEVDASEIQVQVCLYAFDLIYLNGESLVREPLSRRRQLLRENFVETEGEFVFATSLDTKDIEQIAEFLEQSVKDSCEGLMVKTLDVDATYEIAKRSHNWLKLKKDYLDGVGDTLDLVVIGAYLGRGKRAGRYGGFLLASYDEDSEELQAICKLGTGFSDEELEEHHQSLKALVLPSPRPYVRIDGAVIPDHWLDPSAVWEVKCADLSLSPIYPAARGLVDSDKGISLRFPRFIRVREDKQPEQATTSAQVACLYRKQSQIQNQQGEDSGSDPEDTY

[14] = test system: PI5P4Kα; design: method as in MedChemExpress [1]; settings: ATP-competitive; ref MedChemExpress [1]; cited from earlier work
[15] = ref MedChemExpress, cited from earlier work
[16] = target: protein kinase C (PKC); design: method as in MedChemExpress; settings: PKC activity; ref MedChemExpress; cited from earlier work
[17] = target: proctase; design: method as in MedChemExpress; settings: ref MedChemExpress, cited from earlier work
[18] = test system: pepsin; design: method as in MedChemExpress; settings: ref MedChemExpress, cited from earlier work
[19] = test system: acid protease; design: method as in MedChemExpress; settings: ref MedChemExpress, cited from earlier work
[20] = ultrasonic/warming, ref MedChemExpress, cited from earlier work
[21] = test system: PKC; design: method as in MedChemExpress; settings: ref MedChemExpress, cited from earlier work
[22] = HTS hits, difference of raw data w/o and w enzyme
[23] = HTS hits, normalized value (npi)
[24] = radioactive ligation assay, 500 nM Rlig1-AMP, 20 min 37 °C, read-out: IC50
[25] = log(inhibitor) vs. response, variable slope (four parameters)
[26] = HTS hits, difference of raw data without and with enzyme

- 1-D Distance [2, 22]: 670
- 1-D Distance.npi [2, 23]: 96.1946
- Raw data [w Enyzm] ([2]; HTS hits): 8773
- Raw data [w/o Enzym] ([2]; HTS hits): 9443
Compound: CCCc1cc(C(=O)N[C@H](Cc2ccc(-c3cccc(OC(F)(F)F)c3)nc2)C(=O)N[C@@H]2CCNC2)sc1C [AZ82]
- IC50 [1]: 300 nM
- Ki [1]: 43 nM

- 1-D Distance [2, 22]: 1474
- 1-D Distance.npi [2, 23]: 75.4488
- Raw data [w Enyzm] ([2]; HTS hits): 8858
- Raw data [w/o Enzym] ([2]; HTS hits): 10332
Compound: COc1nc(-c2cc(C)c(N[C@@H](C)c3ccc(F)cc3)nn2)ccc1-n1cnc(C)c1 [BPN-15606]
- solubility [3]: 100 mg/mL and 238.97 mM
- IC50 ([4]; read-out: IC50, production of Aβ40): 17 nM
- IC50 ([4]; read-out: IC50, production of Aβ42): 7 nM

Compound: Cc1cc(Nc2ccc(NC(=O)c3ccc(Nc4ccnc5ccccc45)cc3)cc2)nc(N)n1 [Compound 1, SGI-1027, reference compound]
- viability at 24 h, 0.234375 µM [5]: 113%
- viability at 24 h, 0.46875 µM [5]: 103%
- viability at 24 h, 0.9375 µM [5]: 104%
- viability at 24 h, 1.875 µM [5]: 101%
- viability at 24 h, 3.75 µM [5]: 91.9%
- viability at 24 h, 7.5 µM [5]: 83.6%
- viability at 24 h, 15 µM [5]: 60.5%
- viability at 24 h, 30 µM [5]: 51%
- viability at 24 h, 30 µM [6]: 50%
- cell viability under oxidative stress (in words) [7]: almost complete loss of viability
- 28S/18S ratio [8]: > 2
- solubility [3]: 27 mg/mL and 58.50 mM
- inhibition at 10 µM ([9]; 10 µM compound, 37 °C, 20 min): > 70%
- formation of the RNA-adenylate intermediate ([9]; dose-response urea-PAGE (Fig. S3)): inhibited the formation of the RNA-adenylate intermediate
- IC50 [9, 24]: 3960 nM
- IC50 ([10]; DNMT1, poly(dI-dC) as substrate, ref MedChemExpress, read-out: IC50): 12500 nM
- IC50 ([10]; DNMT3A, poly(dI-dC) as substrate, ref MedChemExpress, read-out: IC50): 8000 nM
- IC50 ([10]; DNMT3B, poly(dI-dC) as substrate, ref MedChemExpress, read-out: IC50): 7500 nM
- IC50 ([10]; read-out: IC50 DNMTs): 6000 to 13000 nM
- inhibition at 10 µM ([2]; 10 μM compound, read-out: inhibition in HTS): > 70%
- 1-D Distance [2, 22]: 390
- Raw data [w Enyzm] ([2]; HTS hits): 8456
- Raw data [w/o Enzym] ([2]; HTS hits): 8066
- cell morphology [11]: poor adherence and cell shrinkage
- cytotoxicity (in words) ([12]; HEK293, 24 h, up to 30 μM): moderate cytotoxicity
- IC50 (Figure 3D: EC50 values for plot; log(inhibitor) vs. response -- Variable slope (four parameters)) ([12]; HEK293 cell viability, fit per plate (3 plates, 4 technical replicates each), highest tested concentration 30 µM): 26.0265 µM and 22.3419 µM and 19.1567 µM
- LogIC50 (log(inhibitor) vs. response -- Variable slope (four parameters)) ([12]; HEK293 cell viability, fit per plate (3 plates, 4 technical replicates each), log of [µM]): 1.415 and 1.349 and 1.282
- EC50 ([12]; Homo sapiens, HEK293, 24 h): 23200 nM

Compound: Nc1nccc(Nc2ccc(NC(=O)c3ccc(Nc4ccnc5ccccc45)cc3)cc2)n1 [Compound 26]
- DNA product formation ([13]; hlig1 0.0315 µM): 43.039% and 22.9913% and 34.3002%
- DNA product formation ([13]; hlig1 0.0625 µM): 60.9211% and 39.0213% and 52.249%
- DNA product formation ([13]; hlig1 0.5 µM): 79.5392% and 84.6219% and 85.9221%
- inhibition of Rlig1-AMP ligation (urea-PAGE) ([9]; 10 μM compound, 500 nM Rlig1-AMP, 20 min 37 °C): Ligation was inhibited; also recorded: fully inhibited
- HillSlope (best-fit value) ([9]; four-parameter fit): 3.34
- Span (best-fit value) ([9]; four-parameter fit): 95.37
- IC50 ([9]; four-parameter fit, read-out: IC50 (best-fit value)): 4490 nM
- percentage inhibition (dose response curve for IC50) ([9]; log Compound [µM] 0.273001): 7.036 and 5.771 and 6.366
- percentage inhibition (dose response curve for IC50) ([9]; log Compound [µM] 0.574031): 19.5464 and 52.3001 and 38.2038
- percentage inhibition (dose response curve for IC50) ([9]; log Compound [µM] 0.875061): 94.6767 and 96.3427 and 56.3237
- percentage inhibition (dose response curve for IC50) ([9]; log Compound [µM] 1.17609): 97.6992 and 100 and 95.9858
- percentage inhibition (dose response curve for IC50) ([9]; log Compound [µM] 1.47712): 89.2369 and 100 (2×)
- percentage inhibition (dose response curve for IC50) ([9]; log Compound [µM] -0.0280287): 3.692 and 2.642 and 2.052
- percentage inhibition (dose response curve for IC50) ([9]; log Compound [µM] -0.329059): 0 and 3.294 and 5.142
- percentage inhibition (dose response curve for IC50) ([9]; log Compound [µM] -0.630089): 0 and 3.877 and 4.72
- LogIC50 (best-fit value) ([9]; log of µM, four-parameter fit): 0.6524
- Bottom (best-fit value) [9, 25]: 2.425
- Top (best-fit value) [9, 25]: 97.8
- IC50 [9, 24]: 4490 nM
- cell morphology [11]: poor adherence and cell shrinkage

- 1-D Distance.npi ([2]; sheet HTS hits, MedChemExpress library): 98.3407
- 1-D Distance ([2]; sheet HTS hits, difference of raw data w/o and w enzyme): 515
- Raw data [w Enyzm] ([2]; sheet HTS hits): 1659
- Raw data [w/o Enzym] ([2]; sheet HTS hits): 2174
Compound: COc1cc(/C=C(\C#N)C(=O)c2ccc(O)c(O)c2)cc(I)c1O [I-OMe-Tyrphostin AG 538]
- IC50 [14]: 1000 nM

- 1-D Distance [2, 26]: 1659
- Raw data [w Enyzm] ([2]; HTS hits): 6875
- Raw data [w/o Enzym] ([2]; HTS hits): 8534
Compound: Cc1cnc(NCCCN(C)C)c2c1[nH]c1ccc3cc(O)ccc3c12 [Intoplicine]
- solubility ([15]; DMSO): 80 mg/mL and 229.59 mM

Compound: Cl.Cl.O=C1c2c(O)ccc(O)c2C(=O)c2c(NCCNCCO)ccc(NCCNCCO)c21 [Mitoxantrone (dihydrochloride)]
- IC50 [16]: 8500 nM
- 1-D Distance.npi ([2]; HTS hits, MedChemExpress library): 101.642
- 1-D Distance [2, 26]: 208
- Raw data [w Enyzm] ([2]; HTS hits): 3238
- Raw data [w/o Enzym] ([2]; HTS hits): 3030

Compound: O=C1c2c(O)ccc(O)c2C(=O)c2c(NCCNCCO)ccc(NCCNCCO)c21 [Mitoxantrone]
- solubility ([15]; DMSO): 62.5 mg/mL and 140.61 mM
- solubility ([15]; H2O): 100 mg/mL and 224.98 mM
- IC50 [16]: 8500 nM
- 1-D Distance [2, 26]: 308
- Raw data [w Enyzm] ([2]; HTS hits): 3553
- Raw data [w/o Enzym] ([2]; HTS hits): 3245

- 1-D Distance [2, 22]: 1754
- Raw data [w Enyzm] ([2]; HTS hits): 8928
- Raw data [w/o Enzym] ([2]; HTS hits): 10682
Compound: CC(C)CC(=O)N[C@H](C(=O)N[C@H](C(=O)N[C@@H](CC(C)C)[C@@H](O)CC(=O)N[C@@H](C)C(=O)N[C@@H](CC(C)C)[C@@H](O)CC(=O)O)C(C)C)C(C)C [Pepstatin] (Isovaleryl-VV[Sta]A[Sta]-OH)
- IC50 ([17]; substrate casein, read-out: IC50, casein-proctase): 290 nM
- IC50 ([17]; substrate hemoglobin, read-out: IC50, hemoglobin-proctase): 6.2 nM
- IC50 ([18]; substrate casein, read-out: IC50, casein-pepsin): 150 nM
- IC50 ([18]; substrate hemoglobin, read-out: IC50, hemoglobin-pepsin): 4.5 nM
- IC50 ([19]; substrate casein, read-out: IC50, casein-acid protease): 520 nM
- IC50 ([19]; substrate hemoglobin, read-out: IC50, hemoglobin-acid protease): 260 nM
- solubility, DMSO [20]: 125 mg/mL and 182.24 mM

- 1-D Distance [2, 26]: 1736
- Raw data [w Enyzm] ([2]; HTS hits): 4442
- Raw data [w/o Enzym] ([2]; HTS hits): 6178
Compound: O=C(O)c1cc(O)c2c(c1)[C@H]([C@H]1c3cc(C(=O)O)cc(O)c3C(=O)c3c(O[C@@H]4O[C@H](CO)[C@@H](O)[C@H](O)[C@H]4O)cccc31)c1cccc(O[C@@H]3O[C@H](CO)[C@@H](O)[C@H](O)[C@H]3O)c1C2=O [Sennoside A]
- solubility ([15]; DMSO): 250 mg/mL and 289.77 mM

- 1-D Distance [2, 22]: 1660
- Raw data [w Enyzm] ([2]; HTS hits): 2541
- Raw data [w/o Enzym] ([2]; HTS hits): 4201
Compound: CCCCC(=O)OCC(=O)[C@]1(O)Cc2c(O)c3c(c(O)c2[C@@H](O[C@H]2C[C@H](NC(=O)C(F)(F)F)[C@H](O)[C@H](C)O2)C1)C(=O)c1c(OC)cccc1C3=O [Valrubicin]
- solubility, DMSO [20]: 125 mg/mL and 172.74 mM
- IC50 ([21]; PDBu-induced, read-out: IC50, PDBu-induced PKC activation): 1250 nM
- IC50 ([21]; TPA-induced, read-out: IC50, TPA-induced PKC activation): 850 nM

Compound: Heparin (Lithium salt)
- solubility, H2O ([20]; H2O): H2O : 100 mg/mL (Need ultrasonic)
- 1-D Distance [2, 22]: 1112
- 1-D Distance.npi ([2]; HTS hits, normalised value of 1-D Distance): 83.0264
- Raw data [w Enyzm] ([2]; HTS hits): 12003
- Raw data [w/o Enzym] ([2]; HTS hits): 13115
